Data reported in PubChem BioAssay (NCI).
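Cells were grown in 96-well plates and exposed to each compound for 48 hours at five concentrations; endpoints were interpolated linearly between bracketing concentrations, or set to the highest concentration if not reached. Definition used: TGI = concentration required for complete inhibition of growth.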

Key:
Assay in all cases: NCI tumour cell line growth inhibition, 48 h
MOLT-4 leukemia = tested on: MOLT-4 leukemia
SNB-75 CNS = tested on: SNB-75 CNS
IGROV1 ovarian = tested on: IGROV1 ovarian
TK-10 renal = tested on: TK-10 renal
M14 melanoma = tested on: M14 melanoma
786-0 renal = tested on: 786-0 renal
ACHN renal = tested on: ACHN renal
OVCAR-8 ovarian = tested on: OVCAR-8 ovarian
SR leukemia = tested on: SR leukemia
SNB-19 CNS = tested on: SNB-19 CNS
SW-620 colon = tested on: SW-620 colon
RPMI-8226 leukemia = tested on: RPMI-8226 leukemia
CAKI-1 renal = tested on: CAKI-1 renal
HL-60(TB) leukemia = tested on: HL-60(TB) leukemia
UACC-257 melanoma = tested on: UACC-257 melanoma
BT-549 breast = tested on: BT-549 breast
SF-295 CNS = tested on: SF-295 CNS
UACC-62 melanoma = tested on: UACC-62 melanoma
SF-539 CNS = tested on: SF-539 CNS
U251 CNS = tested on: U251 CNS
PC-3 prostate = tested on: PC-3 prostate
OVCAR-3 ovarian = tested on: OVCAR-3 ovarian
HOP-92 NSCLC = tested on: HOP-92 NSCLC
KM12 colon = tested on: KM12 colon
SK-MEL-2 melanoma = tested on: SK-MEL-2 melanoma
K-562 leukemia = tested on: K-562 leukemia
NCI-H460 lung = tested on: NCI-H460 lung
SK-OV-3 ovarian = tested on: SK-OV-3 ovarian
MDA-MB-435 = tested on: MDA-MB-435
HCT-116 colon = tested on: HCT-116 colon
SK-MEL-5 melanoma = tested on: SK-MEL-5 melanoma
T-47D breast = tested on: T-47D breast
NCI/ADR-RES ovarian = tested on: NCI/ADR-RES ovarian
HCT-15 colon = tested on: HCT-15 colon
RXF 393 renal = tested on: RXF 393 renal
NCI-H226 lung = tested on: NCI-H226 lung
COLO 205 colon = tested on: COLO 205 colon
A549 NSCLC = tested on: A549 NSCLC
MDA-MB-231 breast = tested on: MDA-MB-231 breast
OVCAR-4 ovarian = tested on: OVCAR-4 ovarian
SK-MEL-28 melanoma = tested on: SK-MEL-28 melanoma
A498 renal = tested on: A498 renal
LOX IMVI melanoma = tested on: LOX IMVI melanoma
DU-145 prostate = tested on: DU-145 prostate
HOP-62 NSCLC = tested on: HOP-62 NSCLC
EKVX NSCLC = tested on: EKVX NSCLC
CCRF-CEM leukemia = tested on: CCRF-CEM leukemia
HT29 colon = tested on: HT29 colon
UO-31 renal = tested on: UO-31 renal
MDA-N = tested on: MDA-N
NCI-H23 lung = tested on: NCI-H23 lung
MCF7 breast = tested on: MCF7 breast
OVCAR-5 ovarian = tested on: OVCAR-5 ovarian
SN12C renal = tested on: SN12C renal
NCI-H522 lung = tested on: NCI-H522 lung
SF-268 CNS = tested on: SF-268 CNS
HS 578T breast = tested on: HS 578T breast
MALME-3M melanoma = tested on: MALME-3M melanoma
HCC-2998 colon = tested on: HCC-2998 colon

SMILES: O=C(O)C(CCc1ccccc1)N1C(=O)c2ccccc2C1=O (centres undefined)
- TGI (MOLT-4 leukemia): > 100 µM
- TGI (SNB-75 CNS): > 100 µM
- TGI (IGROV1 ovarian): > 100 µM
- TGI (TK-10 renal): > 100 µM
- TGI (M14 melanoma): > 100 µM
- TGI (786-0 renal): > 100 µM
- TGI (ACHN renal): > 100 µM
- TGI (OVCAR-8 ovarian): > 100 µM
- TGI (SR leukemia): > 100 µM
- TGI (SNB-19 CNS): > 100 µM
- TGI (SW-620 colon): > 100 µM
- TGI (RPMI-8226 leukemia): > 100 µM
- TGI (CAKI-1 renal): > 100 µM
- TGI (HL-60(TB) leukemia): > 100 µM
- TGI (UACC-257 melanoma): > 100 µM
- TGI (BT-549 breast): > 100 µM
- TGI (SF-295 CNS): > 100 µM
- TGI (UACC-62 melanoma): > 100 µM
- TGI (SF-539 CNS): > 100 µM
- TGI (U251 CNS): > 100 µM
- TGI (PC-3 prostate): > 100 µM
- TGI (OVCAR-3 ovarian): > 100 µM
- TGI (HOP-92 NSCLC): > 100 µM
- TGI (KM12 colon): > 100 µM
- TGI (SK-MEL-2 melanoma): > 100 µM
- TGI (K-562 leukemia): > 100 µM
- TGI (NCI-H460 lung): > 100 µM
- TGI (SK-OV-3 ovarian): > 100 µM
- TGI (MDA-MB-435): > 100 µM
- TGI (HCT-116 colon): > 100 µM
- TGI (SK-MEL-5 melanoma): > 100 µM
- TGI (T-47D breast): > 100 µM
- TGI (NCI/ADR-RES ovarian): > 100 µM
- TGI (HCT-15 colon): > 100 µM
- TGI (RXF 393 renal): > 100 µM
- TGI (NCI-H226 lung): > 100 µM
- TGI (COLO 205 colon): > 100 µM
- TGI (A549 NSCLC): > 100 µM
- TGI (MDA-MB-231 breast): > 100 µM
- TGI (OVCAR-4 ovarian): > 100 µM
- TGI (SK-MEL-28 melanoma): > 100 µM
- TGI (A498 renal): > 100 µM
- TGI (LOX IMVI melanoma): > 100 µM
- TGI (DU-145 prostate): > 100 µM
- TGI (HOP-62 NSCLC): > 100 µM
- TGI (EKVX NSCLC): > 100 µM
- TGI (CCRF-CEM leukemia): > 100 µM
- TGI (HT29 colon): > 100 µM
- TGI (UO-31 renal): > 100 µM
- TGI (MDA-N): > 100 µM
- TGI (NCI-H23 lung): > 100 µM
- TGI (MCF7 breast): > 100 µM
- TGI (OVCAR-5 ovarian): > 100 µM
- TGI (SN12C renal): > 100 µM

SMILES: CC(NC(=O)OC(C)(C)C)C(=O)NC1CCCC1 (centres undefined)
- TGI (MOLT-4 leukemia): > 100 µM
- TGI (SNB-75 CNS): > 100 µM
- TGI (IGROV1 ovarian): > 100 µM
- TGI (TK-10 renal): > 100 µM
- TGI (M14 melanoma): > 100 µM
- TGI (786-0 renal): > 100 µM
- TGI (ACHN renal): > 100 µM
- TGI (OVCAR-8 ovarian): > 100 µM
- TGI (SR leukemia): > 100 µM
- TGI (SNB-19 CNS): > 100 µM
- TGI (SW-620 colon): > 100 µM
- TGI (RPMI-8226 leukemia): > 100 µM
- TGI (CAKI-1 renal): > 100 µM
- TGI (HL-60(TB) leukemia): > 100 µM
- TGI (UACC-257 melanoma): > 100 µM
- TGI (NCI-H522 lung): > 100 µM
- TGI (SF-268 CNS): > 100 µM
- TGI (SF-295 CNS): > 100 µM
- TGI (HS 578T breast): > 100 µM
- TGI (PC-3 prostate): > 100 µM
- TGI (OVCAR-3 ovarian): > 100 µM
- TGI (HOP-92 NSCLC): > 100 µM
- TGI (KM12 colon): > 100 µM
- TGI (K-562 leukemia): > 100 µM
- TGI (MALME-3M melanoma): > 100 µM
- TGI (NCI-H460 lung): > 100 µM
- TGI (SK-OV-3 ovarian): > 100 µM
- TGI (MDA-MB-435): > 100 µM
- TGI (HCT-116 colon): > 100 µM
- TGI (SK-MEL-5 melanoma): > 100 µM
- TGI (NCI/ADR-RES ovarian): > 100 µM
- TGI (RXF 393 renal): > 100 µM
- TGI (NCI-H226 lung): > 100 µM
- TGI (COLO 205 colon): > 100 µM
- TGI (A549 NSCLC): > 100 µM
- TGI (OVCAR-4 ovarian): > 100 µM
- TGI (HCC-2998 colon): > 100 µM
- TGI (SK-MEL-28 melanoma): > 100 µM
- TGI (A498 renal): > 100 µM
- TGI (LOX IMVI melanoma): > 100 µM
- TGI (DU-145 prostate): > 100 µM
- TGI (EKVX NSCLC): > 100 µM
- TGI (CCRF-CEM leukemia): > 100 µM
- TGI (HT29 colon): > 100 µM
- TGI (UO-31 renal): > 100 µM
- TGI (MDA-N): > 100 µM
- TGI (NCI-H23 lung): > 100 µM
- TGI (MCF7 breast): > 100 µM
- TGI (OVCAR-5 ovarian): > 100 µM
- TGI (SN12C renal): > 100 µM

SMILES: CO/C(=N\N=C\c1ccccc1F)c1ccncc1
- TGI (MOLT-4 leukemia): > 10 µM
- TGI (TK-10 renal): > 10 µM
- TGI (M14 melanoma): > 10 µM
- TGI (786-0 renal): > 10 µM
- TGI (ACHN renal): > 10 µM
- TGI (OVCAR-8 ovarian): > 10 µM
- TGI (SR leukemia): > 10 µM
- TGI (SNB-19 CNS): > 10 µM
- TGI (SW-620 colon): > 10 µM
- TGI (RPMI-8226 leukemia): > 10 µM
- TGI (CAKI-1 renal): > 10 µM
- TGI (HL-60(TB) leukemia): > 10 µM
- TGI (UACC-257 melanoma): > 10 µM
- TGI (NCI-H522 lung): > 10 µM
- TGI (BT-549 breast): > 10 µM
- TGI (SF-268 CNS): > 10 µM
- TGI (SF-295 CNS): > 10 µM
- TGI (U251 CNS): > 10 µM
- TGI (PC-3 prostate): > 10 µM
- TGI (OVCAR-3 ovarian): > 10 µM
- TGI (HOP-92 NSCLC): > 10 µM
- TGI (KM12 colon): > 10 µM
- TGI (SK-MEL-2 melanoma): > 10 µM
- TGI (K-562 leukemia): > 10 µM
- TGI (MALME-3M melanoma): > 10 µM
- TGI (NCI-H460 lung): > 10 µM
- TGI (MDA-MB-435): > 10 µM
- TGI (HCT-116 colon): > 10 µM
- TGI (T-47D breast): > 10 µM
- TGI (NCI/ADR-RES ovarian): > 10 µM
- TGI (HCT-15 colon): > 10 µM
- TGI (RXF 393 renal): > 10 µM
- TGI (NCI-H226 lung): > 10 µM
- TGI (COLO 205 colon): > 10 µM
- TGI (A549 NSCLC): > 10 µM
- TGI (MDA-MB-231 breast): > 10 µM
- TGI (OVCAR-4 ovarian): > 10 µM
- TGI (HCC-2998 colon): > 10 µM
- TGI (LOX IMVI melanoma): > 10 µM
- TGI (DU-145 prostate): > 10 µM
- TGI (HOP-62 NSCLC): > 10 µM
- TGI (EKVX NSCLC): > 10 µM
- TGI (CCRF-CEM leukemia): > 10 µM
- TGI (HT29 colon): > 10 µM
- TGI (UO-31 renal): > 10 µM
- TGI (MDA-N): > 10 µM
- TGI (NCI-H23 lung): > 10 µM
- TGI (MCF7 breast): > 10 µM
- TGI (OVCAR-5 ovarian): > 10 µM
- TGI (SN12C renal): > 10 µM
